Counter-ions that a name gives are not always drawn.

From patent publication US11634390B2, “Agricultural chemicals” (GLOBACHEM NV, priority 2016, dated 2023) come the findings set out here.

Holding throughout (type): in vivo
For one test, the system named is Stellaria media. Description: Herbicidal screen, post-emergence spray of seedlings in pots: Chickweed. The settings on record: Stellaria media, post-emergence, 240 h, assessed 10 days after treatment, read-out: percentage increase in necrosis relative to the control. How it is done:
(§1) Compounds were screened at four concentrations (100, 50, 25 and 12.5 g/ha) against four weed species (Stellaria media—Chickweed; Abutilon theophrasti—velvetleaf; Amaranthus retroflexus—common amaranthus; Echinochloa crus-galli—Barnyard grass) and maize as a crop species. Seed were sown in 12.5 cm diameter pots (20 per pot for the weed species and 5 for maize). Seedlings were sprayed with 2 ml of compound two weeks after sowing, with 2 ml water used as the control. Each treatment was replicated three times. Plants were maintained at 20° C. and assessed 10 days after treatment. The assessment was based on the % plant in each pot showing growth. The data is presented in Table 1 in which d represents no detected effect at this concentration; c represents a percentage increase in necrosis relative to the control of 0.1-50; b represents a percentage increase in necrosis of 50-80; and a represents a percentage increase in necrosis of 80-100.

The test system of another test is Abutilon theophrasti. Briefly: Herbicidal screen, post-emergence spray of seedlings in pots: velvetleaf. The settings on record: Abutilon theophrasti, post-emergence, 240 h, assessed 10 days after treatment, read-out: percentage increase in necrosis relative to the control. How it is done:
as §1

In the next test the test system is Amaranthus retroflexus. Briefly: Herbicidal screen, post-emergence spray of seedlings in pots: common amaranthus. The settings on record: Amaranthus retroflexus, post-emergence, 240 h, assessed 10 days after treatment, read-out: percentage increase in necrosis relative to the control. How it is done:
as §1

A further test relates to Echinochloa crus-galli. Description: Herbicidal screen, post-emergence spray of seedlings in pots: Barnyard grass. The settings on record: Echinochloa crus-galli, post-emergence, 240 h, assessed 10 days after treatment, read-out: percentage increase in necrosis relative to the control. As to the method:
as §1

The subject of the next test is maize. Description: Herbicidal screen, post-emergence spray of seedlings in pots: crop species. As to conditions: Zea mays, post-emergence, 240 h, assessed 10 days after treatment, read-out: percentage increase in necrosis relative to the control. As to the method:
as §1

Turning to `Cn1c(C(F)(F)F)cc(=O)n(-c2cc(C(=O)NS(=O)(=O)C3CNC3)c(Cl)cc2F)c1=O` [Example 6, N-(Azetidin-3-ylsulfonyl)-2-chloro-4-fluoro-5-(3-methyl-2,6-dioxo-4-(trifluoromethyl)-3,6-dihydropyrimidin-1(2H)-yl)benzamide hydrochloride], in the test with Stellaria media, the pest or weed control at 12.5 g/ha is 0.1 to 50%, the pest or weed control at 25 g/ha lay in the range of 0.1 to 50%, the pest or weed control at 50 g/ha lay within 0.1 to 50% and the pest or weed control at 100 g/ha is 50 to 80%. For the same compound, in the test with Abutilon theophrasti, the pest or weed control at 12.5 g/ha was in the range of 0.1 to 50%, the pest or weed control at 25 g/ha lay in the range of 0.1 to 50%, the pest or weed control at 50 g/ha was 50 to 80% and the pest or weed control at 100 g/ha fell in the range of 50 to 80%. For the same compound, in the test on Amaranthus retroflexus, the pest or weed control at 12.5 g/ha was 50 to 80%, the pest or weed control at 25 g/ha is 50 to 80%, the pest or weed control at 50 g/ha lay within 80 to 100% and the pest or weed control at 100 g/ha was 80 to 100%. In addition, in the test on Echinochloa crus-galli, the pest or weed control at 12.5 g/ha was 0.1 to 50%, the pest or weed control at 25 g/ha is 0.1 to 50%, the pest or weed control at 50 g/ha is 0.1 to 50% and the pest or weed control at 100 g/ha was 0.1 to 50%. Also, in the test with maize, the plant injury at 12.5 g/ha was in the range of 0.1 to 50%, the plant injury at 25 g/ha lay within 0.1 to 50%, the plant injury at 50 g/ha is 0.1 to 50% and the plant injury at 100 g/ha lay within 0.1 to 50%.

Consider `Cn1c(C(F)(F)F)cc(=O)n(-c2cc(C(=O)NS(=O)(=O)C3CCOCC3)c(Cl)cc2F)c1=O` [Example 1, 2-Chloro-4-fluoro-5-(3-methyl-2,6-dioxo-4-(trifluoromethyl)-3,6-dihydropyrimidin-1(2H)-yl)-N-((tetrahydro-2H-pyran-4-yl)sulfonyl)benzamide], for which, in the test with Stellaria media, the pest or weed control at 12.5 g/ha lay within 0.1 to 50%, the pest or weed control at 25 g/ha lay in the range of 0.1 to 50%, the pest or weed control at 50 g/ha was 0.1 to 50% and the pest or weed control at 100 g/ha lay in the range of 0.1 to 50%. In the test on Abutilon theophrasti, the pest or weed control at 12.5 g/ha lay within 0.1 to 50%, the pest or weed control at 25 g/ha was in the range of 50 to 80%, the pest or weed control at 50 g/ha fell in the range of 50 to 80% and the pest or weed control at 100 g/ha was in the range of 50 to 80%. In the test on Amaranthus retroflexus, the pest or weed control at 12.5 g/ha lay within 0.1 to 50%, the pest or weed control at 25 g/ha fell in the range of 50 to 80%, the pest or weed control at 50 g/ha was in the range of 50 to 80% and the pest or weed control at 100 g/ha lay within 80 to 100%. Moreover, in the test with Echinochloa crus-galli, the pest or weed control at 12.5 g/ha lay in the range of 0.1 to 50%, the pest or weed control at 25 g/ha is 0.1 to 50%, the pest or weed control at 50 g/ha was in the range of 0.1 to 50% and the pest or weed control at 100 g/ha fell in the range of 0.1 to 50%. Moreover, in the test on maize, the plant injury at 12.5 g/ha was in the range of 0.1 to 50%, the plant injury at 25 g/ha is 0.1 to 50%, the plant injury at 50 g/ha is 0.1 to 50% and the plant injury at 100 g/ha lay within 0.1 to 50%.

With `Cn1c(C(F)(F)F)cc(=O)n(-c2cc(C(=O)NS(=O)(=O)C3CC3)c(Cl)cc2F)c1=O` [Example 12, 2-Chloro-N-(cyclopropylsulfonyl)-4-fluoro-5-(3-methyl-2,6-dioxo-4-(trifluoromethyl)-3,6-dihydropyrimidin-1(2H)-yl)benzamide], in the test with Stellaria media, the pest or weed control at 12.5 g/ha fell in the range of 0.1 to 50%, the pest or weed control at 25 g/ha lay within 0.1 to 50%, the pest or weed control at 50 g/ha was in the range of 0.1 to 50% and the pest or weed control at 100 g/ha was 0.1 to 50%. Moreover, in the test with Abutilon theophrasti, the pest or weed control at 12.5 g/ha fell in the range of 0.1 to 50%, the pest or weed control at 25 g/ha lay in the range of 0.1 to 50%, the pest or weed control at 50 g/ha fell in the range of 0.1 to 50% and the pest or weed control at 100 g/ha was in the range of 50 to 80%. For the same compound, in the test on Amaranthus retroflexus, the pest or weed control at 12.5 g/ha is 50 to 80%, the pest or weed control at 25 g/ha lay within 50 to 80%, the pest or weed control at 50 g/ha is 80 to 100% and the pest or weed control at 100 g/ha lay within 80 to 100%. In the test with Echinochloa crus-galli, the pest or weed control at 12.5 g/ha was 0.1 to 50%, the pest or weed control at 25 g/ha is 0.1 to 50%, the pest or weed control at 50 g/ha fell in the range of 0.1 to 50% and the pest or weed control at 100 g/ha is 0.1 to 50%. In the test with maize, the plant injury at 12.5 g/ha lay within 0.1 to 50%, the plant injury at 25 g/ha was 0.1 to 50%, the plant injury at 50 g/ha is 0.1 to 50% and the plant injury at 100 g/ha lay within 0.1 to 50%.

Regarding `Cn1c(C(F)(F)F)cc(=O)n(-c2cc(C(=O)NS(=O)(=O)C3CC3)c(F)cc2F)c1=O` [Example 8, N-(Cyclopropylsulfonyl)-2,4-difluoro-5-(3-methyl-2,6-dioxo-4-(trifluoromethyl)-3,6-dihydropyrimidin-1(2H)-yl)benzamide], in the test on Stellaria media, the pest or weed control at 12.5 g/ha fell in the range of 0.1 to 50%, the pest or weed control at 25 g/ha was 0.1 to 50%, the pest or weed control at 50 g/ha was 0.1 to 50% and the pest or weed control at 100 g/ha lay in the range of 50 to 80%. In the test on Abutilon theophrasti, the pest or weed control at 12.5 g/ha is 0.1 to 50%, the pest or weed control at 25 g/ha lay within 0.1 to 50%, the pest or weed control at 50 g/ha is 50 to 80% and the pest or weed control at 100 g/ha fell in the range of 50 to 80%. Besides, in the test on Amaranthus retroflexus, the pest or weed control at 12.5 g/ha fell in the range of 0.1 to 50%, the pest or weed control at 25 g/ha fell in the range of 0.1 to 50%, the pest or weed control at 50 g/ha fell in the range of 80 to 100% and the pest or weed control at 100 g/ha lay within 80 to 100%. In the test on Echinochloa crus-galli, the pest or weed control at 12.5 g/ha is 0.1 to 50%, the pest or weed control at 25 g/ha was in the range of 0.1 to 50%, the pest or weed control at 50 g/ha was 50 to 80% and the pest or weed control at 100 g/ha lay within 50 to 80%. In addition, in the test with maize, the plant injury at 12.5 g/ha is 0.1 to 50%, the plant injury at 25 g/ha fell in the range of 0.1 to 50%, the plant injury at 50 g/ha fell in the range of 0.1 to 50% and the plant injury at 100 g/ha is 0.1 to 50%.

In the case of `Cn1c(C(F)(F)F)cc(=O)n(-c2cc(C(=O)NS(=O)(=O)C3CCNC3)c(Cl)cc2F)c1=O` (stereo not shown) [Example 4, 2-Chloro-4-fluoro-5-(3-methyl-2,6-dioxo-4-(trifluoromethyl)-3,6-dihydropyrimidin-1(2H)-yl)-N-(pyrrolidin-3-ylsulfonyl)benzamide hydrochloride], in the test on Stellaria media, the pest or weed control at 12.5 g/ha was in the range of 0.1 to 50%, the pest or weed control at 25 g/ha was 0.1 to 50%, the pest or weed control at 50 g/ha lay in the range of 0.1 to 50% and the pest or weed control at 100 g/ha lay within 50 to 80%. For the same compound, in the test with Abutilon theophrasti, the pest or weed control at 12.5 g/ha is 0.1 to 50%, the pest or weed control at 25 g/ha is 0.1 to 50%, the pest or weed control at 50 g/ha fell in the range of 0.1 to 50% and the pest or weed control at 100 g/ha was 50 to 80%. Also, in the test on Amaranthus retroflexus, the pest or weed control at 12.5 g/ha lay within 50 to 80%, the pest or weed control at 25 g/ha was 50 to 80%, the pest or weed control at 50 g/ha is 80 to 100% and the pest or weed control at 100 g/ha is 80 to 100%. In addition, in the test on Echinochloa crus-galli, the pest or weed control at 12.5 g/ha fell in the range of 0.1 to 50%, the pest or weed control at 25 g/ha was 0.1 to 50%, the pest or weed control at 50 g/ha lay in the range of 0.1 to 50% and the pest or weed control at 100 g/ha fell in the range of 0.1 to 50%. Moreover, in the test with maize, the plant injury at 12.5 g/ha fell in the range of 0.1 to 50%, the plant injury at 25 g/ha was 0.1 to 50%, the plant injury at 50 g/ha lay within 0.1 to 50% and the plant injury at 100 g/ha fell in the range of 0.1 to 50%.
